Data on 33 compounds can be found in ChEMBL document CHEMBL5247604, “Discovery of novel hybrids containing clioquinol-1-benzyl-1,2,3,6-tetrahydropyridine as multi-target-directed ligands (MTDLs) against Alzheimer's disease” (Eur J Med Chem, 2022).

Activity calls are given as the source filed them. No cut-off for these calls is given here.

The target of data set [1] is Acetylcholinesterase (Electrophorus electricus, UniProt O42275). The data set can be described thus: Inhibition of electric eel AChE using acetylthiocholine iodide as substrate preincubated for 15 mins followed by substrate addition by Ellman's method. (In general: DTNB colorimetry detects thiols as they appear.)
Chain of Acetylcholinesterase (O42275 whole entry): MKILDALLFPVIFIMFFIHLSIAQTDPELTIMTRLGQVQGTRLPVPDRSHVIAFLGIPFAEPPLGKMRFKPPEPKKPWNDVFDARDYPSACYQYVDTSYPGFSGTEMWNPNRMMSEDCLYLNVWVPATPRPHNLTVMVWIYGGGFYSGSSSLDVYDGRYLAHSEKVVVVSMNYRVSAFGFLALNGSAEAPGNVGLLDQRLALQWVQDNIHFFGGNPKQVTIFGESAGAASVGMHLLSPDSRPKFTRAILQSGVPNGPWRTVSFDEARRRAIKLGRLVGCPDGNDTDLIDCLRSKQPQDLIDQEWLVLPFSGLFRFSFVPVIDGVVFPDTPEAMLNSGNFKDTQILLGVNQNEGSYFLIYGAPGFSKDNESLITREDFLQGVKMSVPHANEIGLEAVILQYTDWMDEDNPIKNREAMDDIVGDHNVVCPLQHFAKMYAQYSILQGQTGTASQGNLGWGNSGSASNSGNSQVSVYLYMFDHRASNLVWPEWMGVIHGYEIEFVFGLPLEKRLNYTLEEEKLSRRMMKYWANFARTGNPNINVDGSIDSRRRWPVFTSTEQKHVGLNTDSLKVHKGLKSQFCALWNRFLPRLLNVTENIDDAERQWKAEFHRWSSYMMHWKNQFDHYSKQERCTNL
A short description of data set [2]: Metal chelating activity assessed as Al3+-compound complex formation by measuring blue shift in presence of AlCl3 at 40 uM incubated for 30 mins by UV-Visible spectrophotometry.
Data set [3] in a line: Metal chelating activity assessed as Fe2+-compound complex formation by measuring red shift in presence of FeSO4 at 40 uM incubated for 30 mins by UV-Visible spectrophotometry.
The nature of data set [4]: Metal chelating activity assessed as Zn2+-compound complex formation by measuring red shift in presence of ZnCl2 at 40 uM incubated for 30 mins by UV-Visible spectrophotometry.
A short description of data set [5]: Metal chelating activity assessed as Cu2+-compound complex formation by measuring red shift in presence of CuSO4 at 40 uM incubated for 30 mins by UV-Visible spectrophotometry.
Data set [6] is described as follows: Metal chelating activity assessed as Fe3+-compound complex formation by measuring red shift in presence of FeCl3 at 40 uM incubated for 30 mins by UV-Visible spectrophotometry.
Data set [7] concerns SH-SY5Y. In words: Neuroprotective activity in human SH-SY5Y cells assessed as inhibition of okadaic acid-induced mitochondrial membrane potential by measuring increase in red-to-green fluorescence intensity ratio pretreated for 24 hrs followed by okadaic acid addition for 24 hrs by JC-1 dye based fluorescence analysis. The data set is classed as functional, cell-based.
Data set [8] relates to SH-SY5Y. In words: Antioxidant activity against okadaic acid-induced ROS generation in human SH-SY5Y cells assessed as reduction in DCF fluorescence intensity pretreated for 24 hrs followed by okadaic acid addition for 24 hrs by DCFH-DA dye based fluorescence analysis. The data set is classed as functional, cell-based.
For data set [9], the system named is Mus musculus. In words: Antialzheimer activity in human oligo-merized amyloid beta (1 to 42 residues)-induced cognitive impairment C57BL/6 mouse model assessed as increase in percentage of time spent in the target quadrant at 5 mg/kg,ip qd for 10 days by Morris water maze test relative to control. The data set is classed as functional, organism-based. As to conditions: time 10.0 day.

For data set [10], the system named is SH-SY5Y. In words: Antioxidant activity against okadaic acid-induced ROS generation in human SH-SY5Y cells assessed as reduction in DCF fluorescence intensity at 1 to 10 uM pretreated for 24 hrs followed by okadaic acid addition for 24 hrs by DCFH-DA dye based fluorescence analysis. Type of data set: functional, cell-based. To be noted: dose 1-10 µM.
Data set [11] concerns SH-SY5Y. The data set can be described thus: Antialzheimer activity in human SH-SY5Y cells assessed as inhibition of GA-induced tau hyperphosphorylation at Ser199 residue incubated for 24 hrs by ELISA. The data set is classed as functional, cell-based. For orientation: ELISA stands for enzyme-linked immunosorbent assay.
Data set [12] concerns Mus musculus. In words: Antialzheimer activity in human oligo-merized amyloid beta (1 to 42 residues)-induced cognitive impairment C57BL/6 mouse model assessed as decrease TNF-alpha level in cortex at 5 mg/kg,ip qd for 10 days by ELISA. Type of data set: functional, organism-based. As to conditions: time 10.0 day.
The subject of data set [13] is Mus musculus. In words: Antialzheimer activity in human oligo-merized amyloid beta (1 to 42 residues)-induced cognitive impairment C57BL/6 mouse model assessed as increase duration in novel arm at 5 mg/kg,ip qd for 10 days by Y-maze test relative to control. The data set is classed as functional, organism-based. As to conditions: time 10.0 day.
The test system of data set [14] is Mus musculus. In words: Antialzheimer activity in human oligo-merized amyloid beta (1 to 42 residues)-induced cognitive impairment C57BL/6 mouse model assessed as decrease in escape latency at 5 mg/kg,ip qd for 10 days by Morris water maze test relative to control. Type of data set: functional, organism-based. As to conditions: time 10.0 day.
Data set [15] concerns SH-SY5Y. In words: Antialzheimer activity in human SH-SY5Y cells assessed as inhibition of GA-induced tau hyperphosphorylation at Ser396 residue at 0.1 to 3 uM incubated for 24 hrs by ELISA. Type of data set: functional, cell-based. As to conditions: dose 0.1-3 µM.
Data set [16] is described as follows: in vivo. As to conditions: ICR, mouse, po.
Description: Acute toxicity in ICR mouse assessed as lethality at 21.30 to 52 mg/kg, po and measured upto 14 days
Data set [17] concerns Mus musculus. The data set can be described thus: Antialzheimer activity in human oligo-merized amyloid beta (1 to 42 residues)-induced cognitive impairment C57BL/6 mouse model assessed as decrease IL-1beta level in cortex at 5 mg/kg,ip qd for 10 days by ELISA. Type of data set: functional, organism-based. To be noted: time 10.0 day.
The subject of data set [18] is SH-SY5Y. In words: Antialzheimer activity in human SH-SY5Y cells assessed as inhibition of GA-induced tau hyperphosphorylation at Ser396 residue incubated for 24 hrs by ELISA. The data set is classed as functional, cell-based.
The subject of data set [19] is SH-SY5Y. The data set can be described thus: Antialzheimer activity in human SH-SY5Y cells assessed as inhibition of GA-induced tau hyperphosphorylation at Ser199 residue at 0.1 to 3 uM incubated for 24 hrs by ELISA. The data set is classed as functional, cell-based. As to conditions: dose 0.1-3 µM.
The target of data set [20] is T1, Amyloid-beta precursor protein (Homo sapiens, UniProt P05067). The data set can be described thus: Inhibition of amyloid beta (1 to 42 ) (unknown origin) self aggregation incubated for 24 hr by Thioflavin T based fluorometric assay.
T1 sequence (P05067 whole entry): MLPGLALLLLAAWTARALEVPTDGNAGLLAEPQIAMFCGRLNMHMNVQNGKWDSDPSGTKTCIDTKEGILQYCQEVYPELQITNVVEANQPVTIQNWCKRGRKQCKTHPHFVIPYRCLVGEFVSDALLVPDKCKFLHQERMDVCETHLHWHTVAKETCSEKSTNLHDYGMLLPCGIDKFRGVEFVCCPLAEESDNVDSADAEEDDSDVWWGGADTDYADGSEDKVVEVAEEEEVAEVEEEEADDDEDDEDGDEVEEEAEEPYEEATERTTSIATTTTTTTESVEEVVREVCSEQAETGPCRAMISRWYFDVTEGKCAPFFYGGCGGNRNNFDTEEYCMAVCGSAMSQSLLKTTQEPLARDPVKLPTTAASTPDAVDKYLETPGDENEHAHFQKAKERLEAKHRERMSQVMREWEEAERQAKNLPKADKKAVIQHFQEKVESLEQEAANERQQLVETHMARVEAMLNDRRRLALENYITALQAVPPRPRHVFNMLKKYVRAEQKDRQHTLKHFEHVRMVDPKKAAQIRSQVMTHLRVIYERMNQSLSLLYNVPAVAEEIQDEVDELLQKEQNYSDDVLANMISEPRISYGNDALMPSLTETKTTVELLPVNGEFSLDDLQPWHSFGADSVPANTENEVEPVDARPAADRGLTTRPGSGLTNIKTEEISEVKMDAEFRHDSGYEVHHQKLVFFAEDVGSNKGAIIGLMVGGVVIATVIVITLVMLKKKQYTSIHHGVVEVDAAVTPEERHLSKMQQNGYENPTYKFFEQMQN
Data set [21] deals with T1, Amyloid-beta precursor protein. The data set can be described thus: Inhibition of Cu2+ induced amyloid beta (1 to 42 ) (unknown origin) aggregation assessed as reduction in fibrils incubated for 24 hr by TEM analysis.
Data set [22] has the same target. The data set can be described thus: Inhibition of Cu2+ induced amyloid beta (1 to 42 ) (unknown origin) aggregation incubated for 24 hr by Thioflavin T based fluorometric assay.

Turning to `Oc1cccc2ccc(/C=C/C3=CCN(Cc4ccccc4)CC3)nc12`, half-maximal inhibition in [1] (IC50) was put at 1110 nM.

For `Oc1cccc2ccc(/C=C/C3=CCN(Cc4ccccc4F)CC3)nc12`, the IC50 – broadly, the midpoint of a concentration-inhibition curve – in data set [1] was 570 nM.

Compound `Oc1cccc2ccc(/C=C/C3=CCN(Cc4cccc(Cl)c4)CC3)nc12` yielded an IC50 in [1] of 750 nM. The compound `Cc1cccc(CN2CC=C(/C=C/c3ccc4cccc(O)c4n3)CC2)c1` returned an IC50 in data set [1] of 430 nM. With `Oc1cccc2ccc(/C=C/C3=CCN(Cc4cccc(F)c4)CC3)nc12`, the IC50 in [1] came to 720 nM.

Compound `Oc1cccc2ccc(/C=C/C3=CCN(Cc4ccc(F)cc4)CC3)nc12` came in with an IC50 in data set [1] of 1660 nM. On to `Oc1c(Cl)cc(Cl)c2ccc(/C=C/C3=CCN(Cc4ccc(F)cc4)CC3)nc12`, for which the half-maximal inhibitory concentration (IC50) in data set [1] was 270 nM. `Oc1c(Cl)cc(Cl)c2ccc(/C=C/C3=CCN(Cc4cccc(Cl)c4)CC3)nc12` yielded an IC50 in data set [1] of 330 nM. Regarding `Cc1ccccc1CN1CC=C(/C=C/c2ccc3cccc(O)c3n2)CC1`, the IC50 in data set [1] came out at 400 nM. Compound `Oc1c(Cl)cc(Cl)c2ccc(/C=C/C3=CCN(Cc4cccc(C(F)(F)F)c4)CC3)nc12` showed an IC50 in data set [1] of 700 nM. `Oc1c(Cl)cc(Cl)c2ccc(/C=C/C3=CCN(Cc4cccc(F)c4)CC3)nc12`: in [1], the IC50 was determined as 520 nM. `Oc1cccc2ccc(/C=C/C3=CCN(Cc4cccc(C(F)(F)F)c4)CC3)nc12` showed an IC50 in [1] of 550 nM. As to `Oc1c(Cl)cc(Cl)c2ccc(/C=C/C3=CCN(Cc4ccccc4Br)CC3)nc12`, half-maximal inhibition in data set [1] (IC50) was put at 540 nM. Still for that read-out and setting: for `Oc1c(Cl)cc(Cl)c2ccc(/C=C/C3=CCN(Cc4ccccc4F)CC3)nc12` the value was 290 nM; for `Oc1c(Cl)cc(Cl)c2ccc(/C=C/C3=CCN(Cc4ccccc4C(F)(F)F)CC3)nc12`, 340 nM. Turning to `Cc1cccc(CN2CC=C(/C=C/c3ccc4c(Cl)cc(Cl)c(O)c4n3)CC2)c1`, the outcome in data set [2], in [3] and in data set [5] was Active. The same compound yielded a concentration for half-maximal inhibition (IC50) in data set [1] of 250 nM. Further, the result in [4] and in data set [6] was inactive. As to `Oc1cccc2ccc(/C=C/C3=CCN(Cc4ccccc4Cl)CC3)nc12`, in [1], 1290 nM corresponded to half-maximal inhibition (IC50). For `COc1cc2c(cc1OC)C(=O)C(CC1CCN(Cc3ccccc3)CC1)C2` (configuration not stated) [DONEPEZIL], the IC50 in data set [7] amounted to 326000 nM; in data set [8] it was 202000 nM; in [11], 35000 nM; in data set [18], 155000 nM. The outcome in data set [9], in data set [10], in [12], in data set [13], in data set [14] and in data set [15] was Active. Also, the result in data set [17] and in [19] was Active. In [16], the LD50 (usually the dose expected to kill half of the subjects tested) at 336 h came out at 28.1 mg/kg.

For the compound `Oc1c(Cl)cc(Cl)c2ccc(/C=C/C3=CCN(Cc4ccccc4)CC3)nc12`, the IC50 in [1] was found to be 2310 nM.

As to `Oc1c(Cl)cc(Cl)c2ccc(/C=C/C3=CCN(Cc4ccc(Cl)cc4)CC3)nc12`, the half-maximal inhibitory concentration (IC50) in data set [1] stood at 620 nM. `Oc1cccc2ccc(/C=C/C3=CCN(Cc4cccc(Br)c4)CC3)nc12`: in data set [1], 1530 nM corresponded to half-maximal inhibition (IC50). The same measure, in the same setting: with `Oc1cccc2ccc(/C=C/C3=CCN(Cc4ccccc4Br)CC3)nc12` the figure was 490 nM; with `Oc1c(Cl)cc(Cl)c2ccc(/C=C/C3=CCN(Cc4ccccc4Cl)CC3)nc12`, 410 nM.

Take `Oc1cccc2ccc(/C=C/C3=CCN(Cc4ccc(C(F)(F)F)cc4)CC3)nc12`: the half-inhibitory concentration (IC50) in [1] turned out to be 320 nM. The compound `Oc1cccc2ccc(/C=C/C3=CCN(Cc4ccc(Cl)cc4)CC3)nc12` showed an IC50 in data set [1] of 3050 nM. Consider `Cc1ccc(CN2CC=C(/C=C/c3ccc4cccc(O)c4n3)CC2)cc1`, for which, in [1], the IC50 was determined as 260 nM. As to `Oc1c(Cl)cc(Cl)c2ccc(/C=C/C3=CCN(Cc4ccc(Br)cc4)CC3)nc12`, in data set [1], the IC50 was 640 nM. Same read-out and setting: with `Oc1cccc2ccc(/C=C/C3=CCN(Cc4ccc(Br)cc4)CC3)nc12` the figure was 260 nM. In [1], `Cc1ccc(CN2CC=C(/C=C/c3ccc4c(Cl)cc(Cl)c(O)c4n3)CC2)cc1` returned an IC50 of 540 nM. On to `Oc1c(I)cc(Cl)c2cccnc12`, for which the inhibition result in data set [20] is “inactive”. In addition, the inhibition entry in data set [21] and in [22] was “Active” in each case.

For `Oc1c(Cl)cc(Cl)c2ccc(/C=C/C3=CCN(Cc4cccc(Br)c4)CC3)nc12`, 320 nM corresponded to half-maximal inhibition in data set [1] (IC50). In turn, `Cc1ccccc1CN1CC=C(/C=C/c2ccc3c(Cl)cc(Cl)c(O)c3n2)CC1` showed an IC50 in data set [1] of 560 nM. As for `Oc1c(Cl)cc(Cl)c2ccc(/C=C/C3=CCN(Cc4ccc(C(F)(F)F)cc4)CC3)nc12`, half-maximal inhibition in [1] (IC50) required 280 nM.
